From ChEMBL document CHEMBL1156590, “Stereoselectivity of binding of alpha-(N-benzylamino)benzylphosphonic acids to prostatic acid phosphatase” (Bioorg Med Chem Lett, 2008)

Target: T1, Prostatic acid phosphatase (Homo sapiens, UniProt P15309)
T1 sequence (P15309 whole entry): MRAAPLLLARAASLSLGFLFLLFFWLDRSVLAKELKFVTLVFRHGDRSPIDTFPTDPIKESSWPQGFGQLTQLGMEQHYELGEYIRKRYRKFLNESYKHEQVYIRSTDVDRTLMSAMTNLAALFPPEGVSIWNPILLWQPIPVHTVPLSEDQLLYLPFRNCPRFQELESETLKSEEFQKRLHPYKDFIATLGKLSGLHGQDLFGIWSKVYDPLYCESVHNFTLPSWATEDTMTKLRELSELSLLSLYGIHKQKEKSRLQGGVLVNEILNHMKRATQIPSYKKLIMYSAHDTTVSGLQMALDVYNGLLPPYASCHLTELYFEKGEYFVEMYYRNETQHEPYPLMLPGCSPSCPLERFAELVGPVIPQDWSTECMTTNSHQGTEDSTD
Experiment: Inhibition of human prostatic acid phosphatase

Row | IC50 [nM] | SMILES
1 | 1210 | C[C@H](N[C@@H](c1ccccc1)P(=O)(O)O)c1ccccc1
2 | 26 | C[C@@H](N[C@H](c1ccccc1)P(=O)(O)O)c1ccccc1
3 | 18 | COc1ccc([C@@H](N[C@H](C)c2ccccc2)P(=O)(O)O)cc1
4 | 1070 | COc1ccc([C@H](N[C@@H](C)c2ccccc2)P(=O)(O)O)cc1
